Reference: patent US20230212180A1, “SUBSTITUTED PYRAZINE COMPOUND, PHARMACEUTICAL COMPOSITION COMPRISING SAME, AND USE THEREOF” (Sichuan Kelun-Biotech Biopharmaceutical Co., Ltd., priority 2020, published 2023)

Key:
JAK2 = biological target: T1, JAK2 (Homo sapiens, UniProt O60674); experiment: Kinase selectivity test (ThermoFisher); format: biochemical; set-up: concentration or dose not given beside the values
T1 construct: purchased ThermoFisher USA (contract testing)
Experimental: (§1) Test Example 11: Kinase Selectivity Test
(§2) 1. Experimental Purpose: Tests for selectivity of the compounds of the present disclosure for a plurality of kinases were carried out to assess the safety risk of the compounds of the present disclosure.
(§3) 2. Test institution: ThermoFisher USA
(§4) 3. Testing methods: LanthaScreen binding, Z′-LYTE, Adapta
(§5) 4. Test targets: 100 targets in total

FLT3 = biological target: T2, FLT3 (Homo sapiens, UniProt P36888); experiment: Kinase selectivity test (ThermoFisher); format: biochemical; set-up: concentration or dose not given beside the values
T2 construct: purchased ThermoFisher USA (contract testing)
T2 sequence (P36888 27-993): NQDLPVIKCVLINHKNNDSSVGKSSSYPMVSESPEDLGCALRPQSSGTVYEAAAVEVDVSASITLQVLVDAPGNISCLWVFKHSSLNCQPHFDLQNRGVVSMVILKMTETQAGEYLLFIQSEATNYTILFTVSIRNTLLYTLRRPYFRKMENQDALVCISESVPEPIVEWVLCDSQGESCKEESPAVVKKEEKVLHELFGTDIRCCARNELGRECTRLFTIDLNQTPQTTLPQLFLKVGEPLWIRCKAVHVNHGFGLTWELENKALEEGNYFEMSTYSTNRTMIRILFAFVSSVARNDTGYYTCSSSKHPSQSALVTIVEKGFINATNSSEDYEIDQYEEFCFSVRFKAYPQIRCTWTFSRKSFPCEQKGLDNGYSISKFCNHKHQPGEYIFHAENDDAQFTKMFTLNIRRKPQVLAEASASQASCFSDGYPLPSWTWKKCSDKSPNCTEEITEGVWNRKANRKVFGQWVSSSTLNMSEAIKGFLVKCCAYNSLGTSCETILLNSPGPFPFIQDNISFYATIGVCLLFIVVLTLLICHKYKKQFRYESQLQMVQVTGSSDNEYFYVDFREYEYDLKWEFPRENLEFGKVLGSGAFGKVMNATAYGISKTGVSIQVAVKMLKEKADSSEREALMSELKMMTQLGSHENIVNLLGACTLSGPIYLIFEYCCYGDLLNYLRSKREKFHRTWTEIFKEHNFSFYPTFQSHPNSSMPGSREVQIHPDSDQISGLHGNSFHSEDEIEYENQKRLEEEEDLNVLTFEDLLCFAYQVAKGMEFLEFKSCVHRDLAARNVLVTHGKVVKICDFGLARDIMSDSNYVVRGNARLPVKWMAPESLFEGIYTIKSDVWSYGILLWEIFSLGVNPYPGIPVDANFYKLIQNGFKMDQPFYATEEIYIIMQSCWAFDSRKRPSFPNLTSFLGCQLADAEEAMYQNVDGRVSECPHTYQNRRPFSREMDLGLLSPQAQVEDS
Experimental: as §1, §2, §3, §4, §5

AAK1 = biological target: T3, AAK1 (Homo sapiens, UniProt Q2M2I8); experiment: Kinase selectivity test (ThermoFisher); format: biochemical; set-up: concentration or dose not given beside the values
T3 construct: purchased ThermoFisher USA (contract testing)
T3 sequence (Q2M2I8 whole entry): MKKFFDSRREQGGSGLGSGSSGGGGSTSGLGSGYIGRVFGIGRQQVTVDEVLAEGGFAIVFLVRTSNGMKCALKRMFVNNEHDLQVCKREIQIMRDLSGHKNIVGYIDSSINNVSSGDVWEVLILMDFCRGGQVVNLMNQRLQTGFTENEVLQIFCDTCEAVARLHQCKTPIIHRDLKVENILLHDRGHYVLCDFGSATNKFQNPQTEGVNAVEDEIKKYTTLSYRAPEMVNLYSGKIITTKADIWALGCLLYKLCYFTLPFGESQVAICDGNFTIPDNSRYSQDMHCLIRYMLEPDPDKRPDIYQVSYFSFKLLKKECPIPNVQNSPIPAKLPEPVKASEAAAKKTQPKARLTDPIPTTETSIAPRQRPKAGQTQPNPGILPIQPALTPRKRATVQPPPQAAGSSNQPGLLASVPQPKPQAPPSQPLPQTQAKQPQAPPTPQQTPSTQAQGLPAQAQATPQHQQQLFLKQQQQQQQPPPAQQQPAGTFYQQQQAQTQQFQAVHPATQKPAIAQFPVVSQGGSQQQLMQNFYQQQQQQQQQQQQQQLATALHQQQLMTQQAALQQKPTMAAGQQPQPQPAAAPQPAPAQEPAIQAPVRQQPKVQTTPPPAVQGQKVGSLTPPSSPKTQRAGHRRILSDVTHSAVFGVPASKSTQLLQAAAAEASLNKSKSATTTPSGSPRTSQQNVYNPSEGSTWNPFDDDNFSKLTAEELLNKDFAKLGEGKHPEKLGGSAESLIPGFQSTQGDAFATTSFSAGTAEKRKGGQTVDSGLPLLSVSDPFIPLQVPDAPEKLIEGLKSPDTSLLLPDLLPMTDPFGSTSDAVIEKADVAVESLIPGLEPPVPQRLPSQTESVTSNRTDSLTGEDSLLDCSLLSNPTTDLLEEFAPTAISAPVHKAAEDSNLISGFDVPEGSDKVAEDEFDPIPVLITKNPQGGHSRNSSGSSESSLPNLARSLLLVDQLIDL
Experimental: as §1, §2, §3, §4, §5

KYSE-520 cell xenograft = experiment: Tumor inhibition in KYSE-520 xenograft model; format: in vivo, nu-nu mice; settings: for TGI (%) (calculated by the tumor volume): once-daily oral, 21 consecutive days
Experimental: Test Example 9: Experiment on Tumor Inhibition in KYSE-520 Xenograft Model
A CDX xenograft animal model was established by subcutaneously inoculating KYSE-520 cells in nu-nu mice. After tumor formation, the mice were orally administered once daily to evaluate the in vivo drug efficacy of different test compounds.
The KYSE-520 cells were subjected to monolayer in vitro culture. The culture conditions were as follows: 10% fetal bovine serum was added into the RPMI 1640 medium, and the cells were cultured in an incubator at 37° C. in air containing 5% CO2. The cells were digested twice a week with […] for passaging. When the cells were in exponential growth phase, the cells were harvested and counted. The KYSE-520 cell strains cultured to the logarithmic growth phase were prepared into a single cell suspension (the cells were resuspended in PBS and mixed with Matrigel Matrix Phenol Red-free at a ratio of 1:1, and the final concentration of the cells was 5×10^7/ml). Each of the nude mice was inoculated with 0.1 ml subcutaneously into the right axilla of the nude mice to establish a xenograft model of nude mice with esophageal cancer. When the tumors grew to 130 mm^3, the nude mice were randomly divided into 5 groups and administered. The dosage regime was as shown in Table 9 (once-daily oral administration for 21 consecutive days). The vehicle was 5% DMSO+5% Solutol+90% H2O.
The animals were monitored daily for health and mortality. Routine inspections included observing the influences of drug treatment on the animals' daily behaviors, such as actions and activities, food (water) intake, physical signs, or other abnormalities, and recording them accordingly.
Mice were weighed and tumor volumes were measured twice a week, and the data were recorded. The tumor volume (V) was calculated by the following equation: V=½×a×b^2, wherein a and b indicated the length and width, respectively.
The anti-tumor efficacy was evaluated by tumor growth inhibition TGI (%). […] When the tumor regressed, TGI (%) (tumor volume)=100%−(TVt−TV0)/TV0×100%.

T1 sequence (O60674 whole entry): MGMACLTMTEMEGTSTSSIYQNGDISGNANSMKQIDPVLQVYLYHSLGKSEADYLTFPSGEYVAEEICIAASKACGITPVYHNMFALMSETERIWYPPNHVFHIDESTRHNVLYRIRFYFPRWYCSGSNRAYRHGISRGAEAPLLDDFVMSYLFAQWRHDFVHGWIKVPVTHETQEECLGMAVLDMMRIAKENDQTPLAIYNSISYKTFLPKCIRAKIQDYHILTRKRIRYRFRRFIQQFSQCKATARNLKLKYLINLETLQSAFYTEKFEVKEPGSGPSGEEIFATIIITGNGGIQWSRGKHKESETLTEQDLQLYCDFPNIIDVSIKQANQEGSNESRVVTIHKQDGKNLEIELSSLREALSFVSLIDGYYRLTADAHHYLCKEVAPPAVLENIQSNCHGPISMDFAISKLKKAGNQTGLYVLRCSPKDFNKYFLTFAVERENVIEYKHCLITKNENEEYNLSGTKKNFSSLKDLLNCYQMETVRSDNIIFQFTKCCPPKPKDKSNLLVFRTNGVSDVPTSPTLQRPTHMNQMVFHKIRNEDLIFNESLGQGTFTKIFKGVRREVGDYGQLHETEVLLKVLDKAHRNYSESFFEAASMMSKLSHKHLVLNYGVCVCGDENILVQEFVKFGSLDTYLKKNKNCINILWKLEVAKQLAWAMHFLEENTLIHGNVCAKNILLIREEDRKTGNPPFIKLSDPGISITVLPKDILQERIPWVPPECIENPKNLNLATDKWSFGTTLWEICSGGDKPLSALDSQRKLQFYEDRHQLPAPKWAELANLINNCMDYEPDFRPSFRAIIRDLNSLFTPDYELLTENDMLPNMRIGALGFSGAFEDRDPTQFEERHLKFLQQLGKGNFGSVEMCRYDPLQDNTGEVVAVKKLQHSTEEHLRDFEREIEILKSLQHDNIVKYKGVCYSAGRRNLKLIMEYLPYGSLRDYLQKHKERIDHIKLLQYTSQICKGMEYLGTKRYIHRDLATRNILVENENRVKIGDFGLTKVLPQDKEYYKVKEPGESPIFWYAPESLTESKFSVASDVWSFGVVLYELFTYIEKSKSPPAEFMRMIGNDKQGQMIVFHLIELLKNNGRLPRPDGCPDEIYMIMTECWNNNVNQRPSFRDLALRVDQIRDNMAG

| Structure (SMILES) | Inhibition (%) Target 1 (JAK2) [%] | Inhibition (%) Target 2 (JAK2) [%] | Inhibition (%) Mean value (JAK2) [%] | Inhibition (%) Target 1 (FLT3) [%] | Inhibition (%) Target 2 (FLT3) [%] | Inhibition (%) Mean value (FLT3) [%] | Inhibition (%) Target 1 (AAK1) [%] | Inhibition (%) Target 2 (AAK1) [%] | Inhibition (%) Mean value (AAK1) [%] | TGI (%) (calculated by the tumor volume) (KYSE-520 cell xenograft; 10 mpk) | TGI (%) (calculated by the tumor volume) (KYSE-520 cell xenograft; 30 mpk) | tumor inhibitory effect (in words) (KYSE-520 cell xenograft; oral administration for 21 consecutive days) |
| --- | --- | --- | --- | --- | --- | --- | --- | --- | --- | --- | --- | --- |
| C[C@@H]1OCC2(CCN(c3ncc(Sc4ccnc(N5CC(C(C)(C)O)C5)c4Cl)nc3CO)CC2)[C@@H]1N [Example 12, 2-(1-(4-(5-((3S,4S)-4-amino-3-methyl-2-oxa-8-azaspiro[4.5]decan-8-yl)-6-(hydroxymethyl)pyrazin-2-ylthio)-3-chloropyridin-2-yl)azetidin-3-yl)propan-2-ol] | −7 | −2 | −4 | 11 | 8 | 9 | 3 | 0 | 1 | 81.28 | 96.93 | remarkable tumor inhibitory effect |
| C[C@@H]1OCC2(CCN(c3cnc(Sc4ccnc(N)c4Cl)c(N)n3)CC2)[C@@H]1N [TNO-155, reference compound] | 61 | 57 | 59 | 96 | 97 | 97 | 49 | 46 | 48 | 55.49 | 72.74 | – |
